Measured values: patent US11420970B1 (NOVARTIS AG, priority 2019, dated 2022)
Like-named read-outs stand apart in the source and are kept apart here.

Assays:
NSD2 [1-1365] = NSD2 [1-1365] (Homo sapiens (Human), UniProt O96028); experiment: LC-MS/MS-based NSD2 enzymatic assay (SAH production); assay type: biochemical; settings: read-out: NSD2 IC50
Summary of the method: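 Full-length NSD2 [1-1365] (8 nM final) with 1 μM SAM and 400 nM mouse-liver nucleosome in Tris pH 8.0 buffer; inhibitor preincubated 20 min with enzyme/SAM before nucleosome addition. Reaction 90 min at room temperature, TFA-quenched; SAH quantified by LC-MS/MS against d4-SAH internal standard and SAH standard curve.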

[1] = tested on: cellular H3K36me2 level in multiple myeloma cell line KMS11 (t(4;14)+); experiment: H3K36me2 cellular ELISA assay in KMS11-Par line; assay type: cell-based; settings: Homo sapiens, KMS-11, ELISA, read-out: H3K36me2 ELISA in KMS11-Par
Method: H3K36Me2 Cellular ELISA Assay in KMS11-Par Line
An ELISA (enzyme-linked immunosorbent assay) based assay was used to test the ability of candidate compound to reduce cellular H3K36me2 level in multiple myeloma cell line KMS11 (t(4;14)+). KMS11 (Horizon Discovery Ltd.) cells are maintained in RPM11640 media with 12.5% FBS and 50 U/ml Penicillin-Streptomycin. For assay compound treatment, single cell suspension was prepared in Opti-MEM supplemented with B-27 and N2 supplement (Invitrogen 11058-021, 17504-044, 17502-048) for ELISA and in maintenance media for cellTiter Glo (CTG) viability assay. One day prior to cell treatment, 1,250 KMS11 cells were seeded into 384-well Greiner CellStar TC plate (Greiner #781086) at the final volume of 30 μL/well.
Cells were treated with tested compounds at the desired concentration for 72 hours. Crude histone lysate was extracted by 0.4M HCl following neutralization by 0.5M Sodium phosphate, dibasic (Na2HPO4), pH ˜12.5. Equal amount of histone lysate was loaded to Corning 384-well high biding plate (Corning #3577, black) for H3K36m2 and to Thermo 384-well high binding Nunc plate (Thermo #460372, white) for total H3.
Histone bound plates were washed and blocked with 5% BSA. […] The abundance of H3K36me2 and total H3 was measured by Chemiluminesce on a plate reader. Cell viability was monitored on a parallel seeded plate with CellTiter-Glo reagent (Promega #G7573).

[2] = NSD2 biochemical activity, class symbols
[3] = KMS11-Par line (t(4;14)+), 72 hours treatment

NSD2 [1-1365], sequence (O96028 whole entry): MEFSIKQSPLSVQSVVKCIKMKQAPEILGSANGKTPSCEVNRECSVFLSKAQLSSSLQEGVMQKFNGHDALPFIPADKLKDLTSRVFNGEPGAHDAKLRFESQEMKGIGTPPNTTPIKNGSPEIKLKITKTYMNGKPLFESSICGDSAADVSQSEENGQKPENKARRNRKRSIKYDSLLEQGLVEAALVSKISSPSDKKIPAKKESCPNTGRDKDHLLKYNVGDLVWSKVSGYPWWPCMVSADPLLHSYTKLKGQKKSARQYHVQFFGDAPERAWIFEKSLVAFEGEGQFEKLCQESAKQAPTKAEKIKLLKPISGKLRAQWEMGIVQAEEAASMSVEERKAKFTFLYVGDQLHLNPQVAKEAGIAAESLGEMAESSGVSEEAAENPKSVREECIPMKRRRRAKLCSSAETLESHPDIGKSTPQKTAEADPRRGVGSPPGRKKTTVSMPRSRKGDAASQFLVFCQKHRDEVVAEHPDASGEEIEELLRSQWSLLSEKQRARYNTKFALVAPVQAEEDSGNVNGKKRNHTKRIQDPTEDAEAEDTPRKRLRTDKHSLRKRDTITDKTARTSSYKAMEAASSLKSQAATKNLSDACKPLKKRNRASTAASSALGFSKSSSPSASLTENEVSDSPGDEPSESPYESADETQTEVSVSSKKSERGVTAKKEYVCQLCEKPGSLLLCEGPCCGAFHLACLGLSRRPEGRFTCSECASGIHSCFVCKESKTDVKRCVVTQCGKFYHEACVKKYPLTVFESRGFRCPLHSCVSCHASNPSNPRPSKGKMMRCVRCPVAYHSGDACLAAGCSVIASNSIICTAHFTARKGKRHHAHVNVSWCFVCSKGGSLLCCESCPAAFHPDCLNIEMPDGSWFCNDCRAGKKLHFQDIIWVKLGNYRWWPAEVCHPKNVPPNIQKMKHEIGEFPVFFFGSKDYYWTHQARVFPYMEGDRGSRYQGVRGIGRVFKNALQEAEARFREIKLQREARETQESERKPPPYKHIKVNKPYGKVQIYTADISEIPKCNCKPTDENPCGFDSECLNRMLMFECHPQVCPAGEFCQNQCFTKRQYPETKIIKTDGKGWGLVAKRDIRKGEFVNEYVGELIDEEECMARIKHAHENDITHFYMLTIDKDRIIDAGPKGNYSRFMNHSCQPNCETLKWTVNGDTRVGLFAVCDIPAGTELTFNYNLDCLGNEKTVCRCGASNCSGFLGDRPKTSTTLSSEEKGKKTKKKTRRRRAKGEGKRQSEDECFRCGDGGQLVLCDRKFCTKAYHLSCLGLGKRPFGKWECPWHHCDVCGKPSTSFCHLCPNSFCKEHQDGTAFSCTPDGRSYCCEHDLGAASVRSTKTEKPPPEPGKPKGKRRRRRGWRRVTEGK

IC50 (NSD2 [1-1365]) | IC50 ([1]; KMS11-Par line, 72 hours) | IC50 (NSD2 [1-1365]; [2]) | IC50 [1, 3] | Structure (SMILES)
10 to 1000 nM | 33300 nM | – | – | Cc1cc([C@@]2(N)CCCN(c3cnc(-c4ccc(F)c(F)c4)cc3Cn3cnc4c(N)ncnc43)C2)ccn1 [Example 247, (S)-9-((5-(3-amino-3-(2-methylpyridin-4-yl)piperidin-1-yl)-2-(3,4-difluorophenyl)pyridin-4-yl)methyl)-9H-purin-6-amine]
– | – | 10 to 1000 nM | 4220 nM | Nc1ncnc2c1ncn2Cc1cc(-c2ccc(F)c(F)c2)ncc1N1CCC[C@](N)(Cc2cnccn2)C1 [Example 74, (S)-9-((5-(3-amino-3-(pyrazin-2-ylmethyl)piperidin-1-yl)-2-(3,4-difluorophenyl)pyridin-4-yl)methyl)-9H-purin-6-amine]
1 to 10 nM | 1490 nM | – | – | Nc1nccc2c1ncn2Cc1cc(-c2ccc(F)cc2)ncc1N1CCCC(N)(c2ccn(C3CC3)n2)C1 (stereo not shown) [Example 280, 1-((5-(3-amino-3-(1-cyclopropyl-1H-pyrazol-3-yl)piperidin-1-yl)-2-(4-fluorophenyl)pyridin-4-yl)methyl)-1H-imidazo[4,5-c]pyridin-4-amine]
10 to 1000 nM | 4170 nM | – | – | Cc1cccc(C2(N)CCCN(c3cnc(C4CC4)cc3Cn3cnc4c(N)nccc43)C2)n1 (stereo not shown) [Example 263, 1-((5-(3-amino-3-(6-methylpyridin-2-yl)piperidin-1-yl)-2-cyclopropylpyridin-4-yl)methyl)-1H-imidazo[4,5-c]pyridin-4-amine]
10 to 1000 nM | 2150 nM | – | – | Nc1ncnc2c1ncn2Cc1cc(-c2ccc(F)c(F)c2)ncc1N1CCC[C@](N)(c2ccncc2)C1 [Example 245, (S)-9-((5-(3-amino-3-(pyridin-4-yl)piperidin-1-yl)-2-(3,4-difluorophenyl)pyridin-4-yl)methyl)-9H-purin-6-amine]
10 to 1000 nM | 2200 nM | – | – | CCn1ccc(C2(N)CCCN(c3cnc(-c4ccc(F)cc4)cc3Cn3cnc4c(N)nccc43)C2)n1 (stereo not shown) [Example 277, 1-((5-(3-amino-3-(1-ethyl-1H-pyrazo1-3-yl)piperidin-1-yl)-2-(4-fluorophenyl)pyridin-4-yl)methyl)-1H-imidazo[4,5-c]pyridin-4-amine]
– | – | 1 to 10 nM | 610 nM | COc1ccc(-c2cc(Cn3cnc4c(N)nccc43)c(N3CCC[C@](N)(Cc4nccs4)C3)cn2)cc1F [Example 57, (S)-1-((5-(3-amino-3-(thiazol-2-ylmethyl)piperidin-1-yl)-2-(3-fluoro-4-methoxyphenyl)pyridin-4-yl)methyl)-1H-imidazo[4,5-c]pyridin-4-amine]
– | – | 10 to 1000 nM | 21000 nM | CCO[C@H](C)C1(N)CCCN(c2cnc(-c3ccc(F)c(F)c3)cc2Cn2cnc3c(N)ncnc32)C1 (stereo partly drawn) [Example 99, 9-((5-(3-amino-3-((R)-1-ethoxyethyl)piperidin-1-yl)-2-(3,4-difluorophenyl)pyridin-4-yl)methyl)-9H-purin-6-amine]
10 to 1000 nM | 16700 nM | – | – | Nc1ncnc2c1ncn2Cc1cc(-c2ccc(F)c(F)c2)ncc1N1CCC[C@](N)(c2ccnc(Cl)c2)C1 [Example 246, (S)-9-((5-(3-amino-3-(2-chloropyridin-4-yl)piperidin-1-yl)-2-(3,4-difluorophenyl)pyridin-4-yl)methyl)-9H-purin-6-amine]
10 to 1000 nM | 7250 nM | – | – | CCc1cccc([C@@]2(N)CCCN(c3cnc(C4CC4)cc3Cn3cnc4c(N)nccc43)C2)n1 [Example 252, (R)-1-((5-(3-amino-3-(6-ethylpyridin-2-yl)piperidin-1-yl)-2-cyclopropylpyridin-4-yl)methyl)-1H-imidazo[4,5-c]pyridin-4-amine]
– | – | 10 to 1000 nM | 7910 nM | Nc1nccc2c1ncn2Cc1cc(-c2ccc(F)c(F)c2)ncc1N1CCC[C@](N)(Cc2ncco2)C1 [Example 63, (S)-1-((5-(3-amino-3-(oxazol-2-ylmethyl)piperidin-1-yl)-2-(3,4-difluorophenyl)pyridin-4-yl)methyl)-1H-imidazo[4,5-c]pyridin-4-amine]
